{"source": "patent US20150072391A1", "about": "“ETHANOL PRODUCTION IN ENGINEERED YEAST” (Massachusetts Institute of Technology, priority 2013, published 2015)", "molecules": {"B1": {"name": "Cellulamonas fimi Eng (cenA): endoglucanase expressed in S. cerevisiae (protein, UniProt P07984 32-449, looked up)", "Endoglucanase A": "APGCRVDYAVTNQWPGGFGANVTITNLGDPVSSWKLDWTYTAGQRIQQLWNGTASTNGGQVSVTSLPWNGSIPTGGTASFGFNGSWAGSNPTPASFSLNGTTCTGTVPTTSPTPTPTPTTPTPTPTPTPTPTPTVTPQPTSGFYVDPTTQGYRAWQAASGTDKALLEKIALTPQAYWVGNWADASHAQAEVADYTGRAVAAGKTPMLVVYAIPGRDCGSHSGGGVSESEYARWVDTVAQGIKGNPIVILEPDALAQLGDCSGQGDRVGFLKYAAKSLTLKGARVYIDAGHAKWLSVDTPVNRLNQVGFEYAVGFALNTSNYQTTADSKAYGQQISQRLGGKKFVIDTSRNGNGSNGEWCNPRGRALGERPVAVNDGSGLDALLWVKLPGESDGACNGGPAAGQWWQEIALEMARNARW"}, "B2": {"name": "Cellulomonas fimi cex: CBHI group cellulase expressed in S. cerevisiae (protein, UniProt P07986 42-484, looked up)", "Exoglucanase/xylanase": "ATTLKEAADGAGRDFGFALDPNRLSEAQYKAIADSEFNLVVAENAMKWDATEPSQNSFSFGAGDRVASYAADTGKELYGHTLVWHSQLPDWAKNLNGSAFESAMVNHVTKVADHFEGKVASWDVVNEAFADGDGPPQDSAFQQKLGNGYIETAFRAARAADPTAKLCINDYNVEGINAKSNSLYDLVKDFKARGVPLDCVGFQSHLIVGQVPGDFRQNLQRFADLGVDVRITELDIRMRTPSDATKLATQAADYKKVVQACMQVTRCQGVTVWGITDKYSWVPDVFPGEGAALVWDASYAKKPAYAAVMEAFGASPTPTPTTPTPTPTTPTPTPTSGPAGCQVLWGVNQWNTGFTANVTVKNTSSAPVDGWTLTFSFPSGQQVTQAWSSTVTQSGSAVTVRNAPWNGSIPAGGTAQFGFNGSHTGTNAAPTAFSLNGTPCTVG"}, "B3": {"name": "Cellulomonas fimi Exg (cex): CBHI group cellulase expressed in S. cerevisiae (protein, UniProt P07986 42-484, looked up)", "Exoglucanase/xylanase": "B2 Exoglucanase/xylanase"}}, "key": {"[1]": {"system": "laboratory strain (S288C)", "type": "cell-based, Saccharomyces cerevisiae", "settings": "for effect on ethanol output among additives screened: additives to 1×YSC, 300 g/L glucose (FIG. 7)", "procedure": "(§1) To explore how ionic composition of the culture medium affects ethanol performance, chemically defined conditions were necessary which precluded, in some instances, the use of rich formulas such as yeast extract-peptone-dextrose (YEPD) medium or those containing corn steep liquor. […] After the addition of a carbon source and any ionic supplements, all medium were adjusted to pH 3.8 (i.e., the equilibrium pH from the addition of 50 mM K—Pi to 1×YSC), if necessary, using KOH, typically requiring <400 μM. Cultures were incubated at 30° C.: flask cultures (>25 mL) were agitated on a platform shaker at 200 RPM and smaller cultures in glass tubes on a roller drum at the maximum rotational setting.\n(§2) Pre-fermentation cultures were grown until saturation and their cell densities determined by absorbance at 600 nm of an appropriate dilution made using fresh medium. Equalized quantities of biomass (e.g., ≧200 OD600 units) were harvested by centrifugation and re-suspended in ˜10 mL of fermentation medium to yield a cell density of OD600≧20. In addition to the target high sugar concentration (e.g., 300 g/L glucose), the fermentation medium optionally contained the supplements under study (e.g., 50 mM K—Pi) and were the first time cells were exposed to modified ionic conditions.\n(§3) Fermentations were conducted micro-aerobically: tube-based cultures had at least an equal volume of headspace and were capped snugly with snap-on plastic tops but not sealed with Parafilm. Samples were taken every ˜24 h over the course of 1-4 d; for simplicity, however, several figures display bar graphs of steady state or near steady state ethanol titers (e.g., FIGS. 5A-D). Typically, 16-20 μL were removed and diluted appropriately for measurement of cell density at OD600, another 20 μL for quantification of cell viability by methylene blue staining (see below), and a final 0.5 mL pelleted and the supernatant saved for determination of ethanol concentration.\nEthanol concentrations were determined using one of the following two methods; for consistency, however, all samples deriving from a single experiment were assayed exclusively using one method. […] Absorbances of NADH at 340 nm were blanked against a reaction with ddH2O, measured using an Ultrospec 2100 pro UV/Visible spectrophotometer (GE Healthcare Life Sciences), and normalized against the absorbance of the control solution (“bottle 4”) to determine ethanol concentrations.\nTo determine final concentrations, peak areas auto-determined by the Agilent Chemstation for LC software were interpolated off a standard curve consisting of 0-20% ethanol (by volume) prepared in 1×YSC medium.\nImages were recorded using a SPOT Insight 2 MP Firewire color camera with SPOT 5.0 software, and analyzed offline.\nFor each image, the number of unstained (clear) cells was quantified along with the total number (clear+stained) of cells, and the fraction of live cells determined by taking the quotient of the two. Fractions of viable cells were determined for 3-4 images per sample and used to calculate error statistics for the technical replicates (e.g., FIGS. 2A, 2B, 8A). Mean OD600 absorbance values were multiplied by their respective mean viable fractions to arrive at the underlying viable population in OD600 units (e.g., FIG. 1B, 3B).\nTo calculate ethanol productivities per viable cell, rates of increase in ethanol titer were normalized by the average viable OD600 during the corresponding period (FIG. 1A): […]"}, "Strain BY4743": {"system": "Strain BY4743", "test": "Intracellular pH by ratiometric pHluorin after ethanol shock", "type": "cell-based, Saccharomyces cerevisiae", "settings": "for counteraction of the ethanol-mediated pH drop: supplementation of medium", "procedure": "Strain BY4743 (WT) was transformed with p416TEF-pHluorin and grown overnight in 1×YSC-URA containing 200 g/L glucose and any indicated supplements. Equal amounts of yeast biomass were washed and transferred into respective fresh medium containing the indicated concentrations of ethanol, incubated at room temperature for 30 min, and measured for fluorescence emission. The ratio of intensities emitted from excitation at 395 nm and 475 nm ([…]) is directly proportional to pH.\nTo assess pHi, fluorescence intensities from strains carrying a centromeric plasmid expressing ratiometric pHluorin (LAMy178) or empty vector (LAMy96) were measured in a Tecan Safire^2™ microplate reader using excitation wavelengths of 395 nm and 475 nm, and common emission wavelength of 508 nm. Samples, all normalized for cell density, of 140 μL were aliquoted in duplicate to a 96-well black-walled, clear-bottom plate (Costar #3631), and the readings of the replicates averaged. Autofluorescence was removed by subtracting measurements of LAMy96 from LAMy178, both treated under identical conditions. The ratio of the intensities emitted by excitation at 395 nm to that by excitation at 475 nm is directly proportional to pHi; ratios in the 0.5-1.2 range roughly correspond to pH values of ˜5.5-7 (Orij, R., et al. Microbiology (Reading, Engl) 155, 268-278 (2009))."}, "yeast": {"system": "yeast", "test": "Fermentation in synthetic media with cellulosic hydrolysate inhibitors", "type": "cell-based", "procedure": "To determine whether elevated K^+ and pH can overcome the toxicity in acid hydrolysates of cellulosic biomass, fermentation experiments were performed using synthetic lab media supplemented with the known major inhibitors (e.g., acetic acid, furfural and hydroxymethylfurfural (HMF)).\nAll concentrations were then increased by a factor of four to 120 mM (FIG. 23B), far above what has been reported in any hydrolysate. […] Raising K^+ and pH then boosted production by another 54%."}, "strain FY4/5 (S288C)": {"system": "strain FY4/5 (S288C)", "type": "cell-based, Saccharomyces cerevisiae"}, "S288C": {"system": "S288C", "settings": "YP diluted to 20%", "procedure": "as §1"}, "H131-A3-AL^CS": {"system": "H131-A3-AL^CS", "test": "High cell density xylose fermentation", "type": "cell-based, Saccharomyces cerevisiae", "settings": "K—Pi supplementation, 100 g/L xylose", "procedure": "Furthermore, altering the medium to augment membrane gradients enhanced ethanol production not only from glucose, but from xylose, an abundant carbon source from lignocellulosic feedstocks that cannot be metabolized by unmodified S. cerevisiae^23. Therefore K—Pi supplementation was tested on H131-A3-AL^CS, a strain incorporating the Piromyces XYLA isomerase and P. stipitis XYL3 xylulokinase, and optimized to consume xylose^24. In high cell density, high xylose-only (100 g/L) fermentations, increases of ˜70% in both ethanol titer and productivity were found (FIG. 5D). […]\nTo build yeast biomass and osmotically adapt cells for high cell density and high sugar fermentations, starter cultures consisting of the unmodified base medium (i.e., 1×YSC or YSC-URA) and ˜0.3× the target fermentation sugar concentration (e.g., 100 g/L glucose) were grown until saturation, pelleted by centrifugation, and the entire cell mass used to inoculate a second “pre-fermentation” culture containing ˜0.5-0.6× the target sugar concentration (e.g., 150 g/L glucose). Pre-fermentation cultures were grown until saturation and their cell densities determined by absorbance at 600 nm of an appropriate dilution made using fresh medium. Equalized quantities of biomass (e.g., ≧200 OD600 units) were harvested by centrifugation and re-suspended in ˜10 mL of fermentation medium to yield a cell density of OD600≧20. […]"}, "[2]": {"system": "S288C, PE-2, Ethanol Red, Kyokai 7", "test": "Glucose fermentation of laboratory and industrial yeast strains", "type": "cell-based, Saccharomyces cerevisiae", "settings": "K—Pi supplementation, laboratory prototroph and auxotroph and industrial strains", "procedure": "as §2, §3"}, "[3]": {"settings": "low viscosity CMC; cited from earlier work"}, "[4]": {"settings": "cited from earlier work; for Specific activity: on PNPC"}}, "note": "Where two headings read alike, the source gives them in different places.", "data": [{"molecule": "O=P([O-])(O)O.[Na+]", "note": "[Na—Pi, monosodium phosphate]", "values": [{"measurement": "effect on ethanol output among additives screened", "setting": "[1]", "value": "improves ethanol titer over NaCl"}]}, {"molecule": "CCO", "note": "[ethanol]", "values": [{"measurement": "effect on intracellular pH", "setting": "Strain BY4743; shocks of increasing ethanol concentration", "value": "decreased intracellular pH in a dose-dependent fashion"}]}, {"molecule": "OCc1ccco1", "note": "[furfuryl alcohol]", "values": [{"measurement": "tolerance by yeast compared to furfural", "setting": "yeast", "value": "much better tolerated"}]}, {"molecule": "[Cl-].[K+]", "note": "[KCl, potassium chloride]", "values": [{"measurement": "counteraction of the ethanol-mediated pH drop", "setting": "Strain BY4743", "value": "not capable of counteracting"}, {"measurement": "viability after isobutanol shock", "setting": "strain FY4/5 (S288C); 5 g/L glucose, additional KCl alone", "value": "insufficient to improve viability"}, {"measurement": "effect on ethanol output among additives screened", "setting": "[1]", "value": "largest enhancement within the panel of chloride salts tested"}, {"measurement": "effect on ethanol output and viability during fermentation", "setting": "[1]; varied amount of KCl (10-75 mM) in synthetic medium", "value": "dose-dependent improvements"}]}, {"molecule": "[K+]", "note": "[K^+]", "values": [{"measurement": "enhancement of ethanol output", "setting": "S288C; addition of K+, pH 6, SD", "value": "17±2.5", "unit": "%"}, {"measurement": "restoration of ethanol titers", "setting": "S288C; pH 3.7, addition of K+", "value": "47±2.5", "unit": "%"}, {"measurement": "ethanol titer", "setting": "S288C; pH 3.7, addition of K+, SD", "value": "109 ± 1.8", "unit": "g/L"}, {"measurement": "resistance to isobutanol", "setting": "strain FY4/5 (S288C); 5 g/L glucose, K+ supplementation combined with higher pH (5.3 vs. 3.9)", "value": "capable of enhancing resistance to isobutanol"}]}, {"molecule": "O=Cc1ccc(CO)o1", "note": "[HMF, hydroxymethylfurfural]", "values": [{"measurement": "inhibition compared to the unsupplemented control", "setting": "yeast; 120 mM", "value": 10, "unit": "%"}]}, {"molecule": "O=P([O-])(O)O.[K+]", "note": "[K—Pi, potassium phosphate monobasic]", "values": [{"measurement": "counteraction of the ethanol-mediated pH drop", "setting": "Strain BY4743", "value": "not capable of counteracting"}, {"measurement": "survival after ethanol shock", "setting": "strain FY4/5 (S288C); 10-20% ethanol, 300 g/L glucose, 50 mM K—Pi vs unmodified medium", "value": "survival was indeed enhanced"}, {"measurement": "survival after isobutanol shock", "setting": "strain FY4/5 (S288C); steps of isobutanol, 300 g/L glucose, elevated K—Pi", "value": "reduced rate of survival"}, {"measurement": "viability after isopropanol shock", "setting": "strain FY4/5 (S288C); steps of isopropanol, 300 g/L glucose, K—Pi supplementation", "value": "viability was similarly enhanced"}, {"measurement": "increase in ethanol productivity", "setting": "H131-A3-AL^CS", "value": "~70", "unit": "%"}, {"measurement": "increase in ethanol titer", "setting": "H131-A3-AL^CS", "value": "~70", "unit": "%"}, {"measurement": "rise in ethanol output", "setting": "[1]; 50 mM K—Pi added to 1×YSC, 300 g/L glucose, initial OD600 20-30, vs unmodified medium", "value": "> 50", "unit": "%"}, {"measurement": "final ethanol titer", "setting": "[1]; 50 mM K—Pi, 4-day culture, 300 g/L glucose", "value": "~140", "unit": "g/L"}, {"measurement": "effect on ethanol output among additives screened", "setting": "[1]", "value": "largest improvement"}, {"measurement": "specific ethanol productivity (rate normalized by mean live population)", "setting": "[1]; elevated K—Pi vs unmodified medium", "value": "remained unchanged"}, {"measurement": "additional yeast biomass", "setting": "[1]; high K—Pi vs unmodified medium", "value": "~25", "unit": "%"}, {"measurement": "ethanol output titers (near the molar conversion limit)", "setting": "[2]", "value": "~150", "unit": "g/L"}]}, {"molecule": "B1", "values": [{"measurement": "activity measured per L culture broth", "setting": "[3]", "value": "293 U/L (low viscosity"}]}, {"molecule": "B2", "values": [{"measurement": "activity measured per L culture broth", "setting": "[4]; PNPC", "value": "8 U/L,"}, {"measurement": "activity per dry cell weight", "setting": "[4]; PNPC", "value": "~1.0 U/g DCW (PNPC)"}, {"measurement": "Specific activity", "setting": "[4]", "value": 3, "unit": "U/mg"}]}, {"molecule": "B3", "values": [{"measurement": "activity measured per L culture broth", "setting": "[4]; PNPC", "value": "45 U/L (PNPC)"}, {"measurement": "Specific activity", "setting": "[4]", "value": "3.6 (PNPC) U/mg"}]}]}
